The source of these data is PMC4861610 (Drug Design, Development and Therapy, 2016).

One data set deals with FGFR3 (Homo sapiens, UniProt P22607). Description: LANCE Ultra TR-FRET kinase selectivity assay, FGFR3. Type of data set: biochemical. (In general: Time-resolved FRET reads energy transfer from a long-lived donor to a nearby acceptor.)
Another data set has as its target T1, FLT3 (Homo sapiens, UniProt P36888).
T1 sequence (P36888 27-993): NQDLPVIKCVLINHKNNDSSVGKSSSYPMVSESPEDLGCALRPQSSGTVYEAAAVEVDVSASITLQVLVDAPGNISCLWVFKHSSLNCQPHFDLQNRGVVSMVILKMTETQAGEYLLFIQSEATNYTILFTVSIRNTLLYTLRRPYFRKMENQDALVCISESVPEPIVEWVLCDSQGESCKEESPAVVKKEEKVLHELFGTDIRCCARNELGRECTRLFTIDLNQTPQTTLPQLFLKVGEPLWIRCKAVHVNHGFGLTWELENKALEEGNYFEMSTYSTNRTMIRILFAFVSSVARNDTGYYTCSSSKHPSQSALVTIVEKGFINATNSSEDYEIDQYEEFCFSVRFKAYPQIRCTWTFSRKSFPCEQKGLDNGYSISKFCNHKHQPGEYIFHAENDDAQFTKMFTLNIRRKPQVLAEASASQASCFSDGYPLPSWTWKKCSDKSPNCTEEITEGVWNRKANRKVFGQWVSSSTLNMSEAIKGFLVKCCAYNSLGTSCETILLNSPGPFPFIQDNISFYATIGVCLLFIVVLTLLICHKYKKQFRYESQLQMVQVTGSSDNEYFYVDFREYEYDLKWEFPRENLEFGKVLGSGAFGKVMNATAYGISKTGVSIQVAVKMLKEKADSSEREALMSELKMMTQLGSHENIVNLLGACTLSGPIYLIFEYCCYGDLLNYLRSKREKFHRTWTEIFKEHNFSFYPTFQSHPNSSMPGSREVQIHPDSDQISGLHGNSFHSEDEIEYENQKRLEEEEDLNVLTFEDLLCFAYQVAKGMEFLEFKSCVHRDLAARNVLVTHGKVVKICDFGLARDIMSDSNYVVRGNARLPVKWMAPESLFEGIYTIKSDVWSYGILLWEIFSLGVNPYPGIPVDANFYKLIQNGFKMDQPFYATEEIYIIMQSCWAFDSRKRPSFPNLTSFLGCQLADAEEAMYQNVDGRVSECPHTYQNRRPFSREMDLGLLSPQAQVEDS
Description: LANCE Ultra TR-FRET kinase selectivity assay, FLT3. Type of data set: biochemical.

In a further data set the target is EGFR (Homo sapiens, UniProt P00533). Description: LANCE Ultra TR-FRET kinase selectivity assay, EGFR. Type of data set: biochemical.
A further data set concerns the target FGFR2 (Homo sapiens, UniProt P21802). The data set is described as follows: LANCE Ultra TR-FRET kinase selectivity assay, FGFR2. Type of data set: biochemical.
The target of another data set is PDGFR-β (Homo sapiens, UniProt P09619). Description: LANCE Ultra TR-FRET kinase selectivity assay, PDGFR-β. Type of data set: biochemical.
Data set [1] can be described thus: MTT cytotoxicity assay, normal liver HL7702 cells. Type of data set: cell-based, human. Conditions: human, HL7702 normal liver cells. On the technique in general: Tetrazolium assays rely on reduction of a dye to a coloured formazan, in cell work by metabolically active cells.
For another data set, the target named is FGFR1 kinase (Homo sapiens, UniProt P11362). Description: LANCE Ultra TR-FRET kinase assay, FGFR1. Type of data set: biochemical. Conditions: for Selectivity ratio: ratio of the second lowest IC50 against the lowest IC50 value among FLT3, FGFR1-3, PDGFR-β, EGFR.
The test system of the next data set is HL7702 cells. The data set is described as follows: MTT cytotoxicity assay, normal liver HL7702 cells. Type of data set: cell-based, human. The conditions noted are these: 2 and 10 µM, Figure 5A and B.

PDGFR-β, sequence (P09619 33-1106, species assumed): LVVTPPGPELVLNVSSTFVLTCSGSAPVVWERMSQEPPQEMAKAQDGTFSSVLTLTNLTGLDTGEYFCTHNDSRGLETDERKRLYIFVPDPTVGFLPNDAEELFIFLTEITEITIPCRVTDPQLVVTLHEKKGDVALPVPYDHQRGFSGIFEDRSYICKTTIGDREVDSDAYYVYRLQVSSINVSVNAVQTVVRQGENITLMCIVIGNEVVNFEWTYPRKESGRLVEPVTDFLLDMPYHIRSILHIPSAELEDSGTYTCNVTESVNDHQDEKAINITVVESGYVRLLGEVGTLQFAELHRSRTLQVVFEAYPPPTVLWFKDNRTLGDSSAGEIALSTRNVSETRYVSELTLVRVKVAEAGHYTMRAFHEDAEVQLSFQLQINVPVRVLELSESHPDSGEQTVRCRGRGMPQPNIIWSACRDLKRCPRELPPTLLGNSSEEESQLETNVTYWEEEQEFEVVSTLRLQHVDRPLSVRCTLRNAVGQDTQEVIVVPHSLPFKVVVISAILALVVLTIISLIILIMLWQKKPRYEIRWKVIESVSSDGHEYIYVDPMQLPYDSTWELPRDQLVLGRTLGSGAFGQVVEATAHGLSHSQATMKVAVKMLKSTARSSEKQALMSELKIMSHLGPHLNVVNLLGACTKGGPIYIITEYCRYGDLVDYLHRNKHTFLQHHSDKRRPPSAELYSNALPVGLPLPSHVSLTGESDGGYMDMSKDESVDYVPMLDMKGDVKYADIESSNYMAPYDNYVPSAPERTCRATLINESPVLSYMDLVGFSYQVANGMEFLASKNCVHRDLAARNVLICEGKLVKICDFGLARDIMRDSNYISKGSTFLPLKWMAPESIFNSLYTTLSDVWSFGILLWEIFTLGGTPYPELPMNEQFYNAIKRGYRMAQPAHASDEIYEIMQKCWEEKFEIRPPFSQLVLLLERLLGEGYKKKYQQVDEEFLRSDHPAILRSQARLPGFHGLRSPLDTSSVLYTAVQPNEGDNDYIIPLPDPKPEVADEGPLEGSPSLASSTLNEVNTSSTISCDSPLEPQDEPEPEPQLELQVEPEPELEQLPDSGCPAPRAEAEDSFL
FGFR3, sequence (P22607 23-806, species assumed): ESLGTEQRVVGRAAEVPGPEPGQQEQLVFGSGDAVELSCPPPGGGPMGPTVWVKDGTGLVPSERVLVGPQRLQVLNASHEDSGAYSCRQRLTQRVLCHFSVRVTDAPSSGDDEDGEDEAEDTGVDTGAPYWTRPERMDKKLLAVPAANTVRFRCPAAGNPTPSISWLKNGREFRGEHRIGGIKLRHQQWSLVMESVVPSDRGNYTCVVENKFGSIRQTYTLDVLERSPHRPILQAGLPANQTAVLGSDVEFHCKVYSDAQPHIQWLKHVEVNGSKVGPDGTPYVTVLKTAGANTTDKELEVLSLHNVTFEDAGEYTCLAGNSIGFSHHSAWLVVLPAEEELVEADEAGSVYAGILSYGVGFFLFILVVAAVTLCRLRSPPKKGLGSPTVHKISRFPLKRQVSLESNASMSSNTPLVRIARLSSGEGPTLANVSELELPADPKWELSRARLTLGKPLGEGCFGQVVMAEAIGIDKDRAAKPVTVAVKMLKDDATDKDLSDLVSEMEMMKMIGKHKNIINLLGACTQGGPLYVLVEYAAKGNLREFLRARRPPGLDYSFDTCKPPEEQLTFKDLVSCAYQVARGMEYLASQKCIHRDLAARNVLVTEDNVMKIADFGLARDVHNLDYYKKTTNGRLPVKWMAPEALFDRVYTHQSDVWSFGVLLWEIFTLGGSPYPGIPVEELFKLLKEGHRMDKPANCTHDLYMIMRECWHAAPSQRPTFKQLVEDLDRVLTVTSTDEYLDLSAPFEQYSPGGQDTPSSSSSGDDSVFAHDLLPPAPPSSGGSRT
EGFR, sequence (P00533 25-1210, species assumed): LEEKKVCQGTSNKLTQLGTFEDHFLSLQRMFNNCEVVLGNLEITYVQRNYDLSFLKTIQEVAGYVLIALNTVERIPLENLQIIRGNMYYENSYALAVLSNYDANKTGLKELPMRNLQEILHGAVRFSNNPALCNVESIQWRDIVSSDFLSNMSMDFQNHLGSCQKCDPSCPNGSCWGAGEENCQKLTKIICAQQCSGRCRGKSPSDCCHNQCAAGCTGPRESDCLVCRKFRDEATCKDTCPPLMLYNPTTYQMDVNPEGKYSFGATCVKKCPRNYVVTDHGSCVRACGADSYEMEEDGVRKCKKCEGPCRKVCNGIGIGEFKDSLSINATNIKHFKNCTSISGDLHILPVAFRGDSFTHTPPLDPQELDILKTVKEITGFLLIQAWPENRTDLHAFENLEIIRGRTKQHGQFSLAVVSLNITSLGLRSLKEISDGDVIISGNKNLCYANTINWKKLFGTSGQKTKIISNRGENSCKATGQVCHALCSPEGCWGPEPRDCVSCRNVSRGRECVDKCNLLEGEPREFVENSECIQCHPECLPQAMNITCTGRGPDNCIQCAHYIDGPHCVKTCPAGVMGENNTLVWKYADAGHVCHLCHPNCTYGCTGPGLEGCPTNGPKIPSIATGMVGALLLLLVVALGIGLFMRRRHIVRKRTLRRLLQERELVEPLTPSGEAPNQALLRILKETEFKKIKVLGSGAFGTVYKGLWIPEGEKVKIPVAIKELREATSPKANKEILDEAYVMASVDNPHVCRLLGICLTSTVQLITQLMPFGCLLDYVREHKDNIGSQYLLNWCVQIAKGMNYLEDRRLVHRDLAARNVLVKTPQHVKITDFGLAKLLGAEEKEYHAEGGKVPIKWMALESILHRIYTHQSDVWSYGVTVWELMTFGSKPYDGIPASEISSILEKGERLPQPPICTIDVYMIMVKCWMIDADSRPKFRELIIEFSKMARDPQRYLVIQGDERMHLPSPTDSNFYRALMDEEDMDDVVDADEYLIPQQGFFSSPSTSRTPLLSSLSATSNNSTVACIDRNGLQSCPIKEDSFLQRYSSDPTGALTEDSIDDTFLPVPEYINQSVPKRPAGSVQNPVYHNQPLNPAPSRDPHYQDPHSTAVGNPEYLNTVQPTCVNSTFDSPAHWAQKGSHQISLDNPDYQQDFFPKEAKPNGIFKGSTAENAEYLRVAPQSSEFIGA
FGFR1 kinase, sequence (P11362 478-767 limits assumed): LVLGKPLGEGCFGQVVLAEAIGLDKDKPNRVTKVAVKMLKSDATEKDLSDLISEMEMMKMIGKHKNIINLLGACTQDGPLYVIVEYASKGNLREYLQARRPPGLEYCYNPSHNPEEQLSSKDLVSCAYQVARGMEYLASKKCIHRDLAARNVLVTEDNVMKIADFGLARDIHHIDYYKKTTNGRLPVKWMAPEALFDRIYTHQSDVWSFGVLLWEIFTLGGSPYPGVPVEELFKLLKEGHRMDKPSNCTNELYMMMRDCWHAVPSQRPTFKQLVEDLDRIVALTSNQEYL
FGFR2, sequence (P21802 22-821, species assumed): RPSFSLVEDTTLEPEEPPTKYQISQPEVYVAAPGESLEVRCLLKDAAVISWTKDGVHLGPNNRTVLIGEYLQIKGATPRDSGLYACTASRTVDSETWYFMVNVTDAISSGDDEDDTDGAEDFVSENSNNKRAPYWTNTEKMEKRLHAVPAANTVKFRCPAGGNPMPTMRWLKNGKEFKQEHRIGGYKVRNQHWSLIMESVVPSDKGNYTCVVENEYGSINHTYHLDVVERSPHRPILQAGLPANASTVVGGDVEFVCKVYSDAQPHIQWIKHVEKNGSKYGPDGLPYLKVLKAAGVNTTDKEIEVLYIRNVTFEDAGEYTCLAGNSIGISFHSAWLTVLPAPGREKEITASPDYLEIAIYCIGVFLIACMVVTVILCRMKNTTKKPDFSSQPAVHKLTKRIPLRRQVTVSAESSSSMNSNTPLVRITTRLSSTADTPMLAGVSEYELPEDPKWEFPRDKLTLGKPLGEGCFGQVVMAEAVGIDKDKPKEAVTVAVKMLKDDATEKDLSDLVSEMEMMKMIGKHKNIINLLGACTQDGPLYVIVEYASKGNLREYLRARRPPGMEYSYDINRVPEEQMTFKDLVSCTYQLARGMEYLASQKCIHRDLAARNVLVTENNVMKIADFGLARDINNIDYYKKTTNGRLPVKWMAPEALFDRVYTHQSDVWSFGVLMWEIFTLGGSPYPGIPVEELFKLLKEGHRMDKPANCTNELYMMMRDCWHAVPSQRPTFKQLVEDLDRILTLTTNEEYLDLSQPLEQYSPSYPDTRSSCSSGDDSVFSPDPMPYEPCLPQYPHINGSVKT

In general, IC50 refers to the concentration that inhibits the measured activity by half. Read a high IC50 as weaker potency. For `Cn1c(=O)c(/C=C/c2ccccn2)nc2ccccc21` [B5, (E)-3-[2-(Pyridine-2-yl)ethenyl]-1,2-dihydro-1-methyl-quinoxalin-2-one], the IC50 against FGFR3 is > 100 µM; against FLT3, > 100 µM; against EGFR, > 100 µM; at FGFR2 it was > 100 µM; against PDGFR-β it was 89.5 ± 3.56 µM.
In turn, `Fc1ccccc1/C=C/c1nc2ccccc2nc1Cl` [D1, (E)-2-Chloro-3-[2-(2-fluorophenyl)ethenyl]-quinoxalin] came in with an IC50 at 72 h in data set [1] of 40.2 ± 1.85 µM.
Take `CN1CCN(c2nc3ccccc3nc2/C=C/c2ccccc2F)CC1` [D3, (E)-2-(4-Methylpiperazin-1-yl)-3-[2-(2-fluorophenyl)ethenyl]-quinoxalin]: in data set [1], the IC50 at 72 h is > 100 µM.
Same read-out and setting: the value for `Cn1c(=O)c(/C=C/c2ccccc2Br)nc2ccccc21` [B3, (E)-3-[2-(2-Bromophenyl)ethenyl]-1,2-dihydro-1-methyl-quinoxalin-2-one] was 49 ± 1.31 µM.
As for `CN1CCN(c2ccc3nc(-c4c(N)c5c(F)cccc5[nH]c4=O)[nH]c3c2)CC1` [TKI258, reference compound], in data set [1], the IC50 at 72 h turned out to be 32.8 ± 2.38 µM.
With `Cn1c(=O)c(/C=C/c2ccc(F)cc2)nc2ccccc21` [B4, (E)-1,2-Dihydro-3-[2-(4-fluorophenyl)ethenyl]-1-methyl-quinoxalin-2-one], the concentration for half-maximal inhibition (IC50) at 72 h in data set [1] was > 100 µM.
The same measure, in the same setting: to `O=c1[nH]c2ccccc2nc1/C=C/c1ccccc1F` [A6, (E)-3-[2-(2-Fluorophenyl)ethenyl]-1,2-dihydro-quinoxalin-2-one] belongs > 100 µM; to `O=c1[nH]c2ccccc2nc1/C=C/c1ccc(C(F)(F)F)cc1` [A11, (E)-1,2-Dihydro-3-[2-(4-trifluoromethylphenyl)ethenyl]-quinoxalin-2-one], > 100 µM.
As for `O=c1[nH]c2ccccc2nc1/C=C/c1ccccc1` [A1, (E)-1,2-Dihydro-3-(2-phenylethenyl) quinoxalin-2-one], the IC50 was 89.6 ± 3.32 µM on FGFR3; > 100 µM against FLT3; > 100 µM against EGFR; > 100 µM at FGFR2; 23.2 ± 1.12 µM on FGFR1 kinase; > 100 µM at PDGFR-β. At FGFR1 kinase, the Selectivity ratio worked out at 3.86. Further, the 50% inhibitory concentration (IC50) at 72 h in data set [1] was > 100 µM.
On to `O=c1c(/C=C/c2ccccc2)nc2ccccc2n1Cc1ccccc1` [C1, (E)-1,2-Dihydro-3-(2-phenylethenyl)-1-phenylmethyl-quinoxalin-2-one], for which the IC50 at 72 h in data set [1] is > 100 µM.
For the molecule `O=c1[nH]c2ccccc2nc1/C=C/c1ccc2ccccc2c1` [A13, (E)-1,2-Dihydro-3-[2-(naphth-2-yl)ethenyl]-quinoxalin-2-one], the IC50 at 72 h in data set [1] was > 100 µM.
Same read-out and setting: to `O=c1c(/C=C/c2ccccc2F)nc2ccccc2n1Cc1ccccc1` [C4, (E)-3-[2-(2-Fluorophenyl)ethenyl]-1,2-dihydro-1-phenylmethyl-quinoxalin-2-one] belongs > 100 µM; to `COc1cccc(/C=C/c2nc3ccccc3[nH]c2=O)c1OC` [A9, (E)-1,2-Dihydro-3-[2-(2,3-dimethoxyphenyl)ethenyl]-quinoxalin-2-one], > 100 µM.
Take `Cn1c(=O)c(/C=C/c2ccccc2Cl)nc2ccccc21` [B2, (E)-3-[2-(2-Chlorophenyl)ethenyl]-1,2-dihydro-1-methyl-quinoxalin-2-one]: the IC50 was > 100 µM at FGFR3; > 100 µM on FLT3; > 100 µM against EGFR; > 100 µM against FGFR2; 26.1 ± 1.32 µM against FGFR1 kinase; > 100 µM on PDGFR-β. For the same molecule, the IC50 at 72 h in data set [1] was > 100 µM.
For the molecule `O=c1[nH]c2ccccc2nc1/C=C/c1ccccc1Cl` [A2, (E)-1,2-Dihydro-3-[2-(2-chlorophenyl)ethenyl]-quinoxalin-2-one], the half-maximal inhibitory concentration (IC50) on FGFR3 is 75.1 ± 2.56 µM; against FLT3, > 100 µM; against EGFR, > 100 µM; at FGFR2, > 100 µM; at FGFR1 kinase, 21.5 ± 2.24 µM; against PDGFR-β it was 55.4 ± 1.72 µM. In addition, on FGFR1 kinase, the Selectivity ratio is 2.57. The molecule further showed an IC50 at 72 h in data set [1] of 41.5 ± 7.56 µM.
For `O=c1[nH]c2ccccc2nc1/C=C/c1ccccn1` [A5, (E)-3-[2-(Pyridine-2-yl)ethenyl]-1,2-dihydro-quinoxalin-2-one], the IC50 on FGFR3, at FLT3, against EGFR, on FGFR2 and against PDGFR-β was > 100 µM in each case. Moreover, the “inhibition ratio of FGFR1” value at FGFR1 kinase (at 10.0 µM) is on record as 79.33%. The “survival rate of HL7702 cells compared with TKI258” value in the data set on HL7702 cells is listed as “higher survival rate”. The IC50 at 72 h in data set [1] is > 100 µM.
In data set [1], `O=c1[nH]c2ccccc2nc1/C=C/c1cccs1` [A7, (E)-3-[2-(Thiophene-2-yl)ethenyl]-1,2-dihydro-quinoxalin-2-one] had a concentration for half-maximal inhibition (IC50) at 72 h of 83.2 ± 8.12 µM.
Turning to `O=c1c(/C=C/c2ccccc2Br)nc2ccccc2n1Cc1ccccc1` [C3, (E)-3-[2-(2-Bromophenyl)ethenyl]-1,2-dihydro-1-phenylmethyl-quinoxalin-2-one], in data set [1], the half-inhibitory concentration (IC50) at 72 h was > 100 µM.
The same measure, in the same setting: the value for `O=c1c(/C=C/c2ccccn2)nc2ccccc2n1Cc1ccccc1` [C5, (E)-3-[2-(Pyridine-2-yl)ethenyl]-1,2-dihydro-1-phenylmethyl-quinoxalin-2-one] was 35.8 ± 2.17 µM; that for `O=c1[nH]c2ccccc2nc1/C=C/c1ccco1` [A8, (E)-3-[2-(Furan-2-yl)ethenyl]-1,2-dihydro-quinoxalin-2-one] was > 100 µM; that for `Cn1c(=O)c(/C=C/c2ccccc2)nc2ccccc21` [B1, (E)-1,2-Dihydro-1-methyl-3-(2-phenylethenyl)-quinoxalin-2-one] was > 100 µM.
In turn, `O=c1[nH]c2ccccc2nc1/C=C/c1ccccc1[N+](=O)[O-]` [A10, (E)-1,2-Dihydro-3-[2-(2-nitrophenyl)ethenyl]-quinoxalin-2-one] yielded a 50% inhibitory concentration (IC50) at 72 h in data set [1] of 68.2 ± 5.96 µM.
For the molecule `O=c1c(/C=C/c2ccccc2Cl)nc2ccccc2n1Cc1ccccc1` [C2, (E)-3-[2-(2-Chlorophenyl)ethenyl]-1,2-dihydro-1-phenylmethyl-quinoxalin-2-one], the IC50 against FLT3, at EGFR, at FGFR2 and on PDGFR-β was > 100 µM each time. Besides, the Selectivity ratio at FGFR1 kinase stood at 3.68. Moreover, the IC50 at 72 h in data set [1] is > 100 µM.
In data set [1], `Oc1nc2ccccc2nc1/C=C/c1ccc(F)cc1` [A4, (E)-3-[2-(4-Fluorophenyl)ethenyl]-1,2-dihydro-quinoxalin-2-one] gave a half-inhibitory concentration (IC50) at 72 h of 67.9 ± 1.94 µM.
